From patent publication US10844069B2, “Pyrrolotriazine compounds as TAM inhibitors” (Incyte Corporation, priority 2016, dated 2020)
pIC50: −log10 of the molar value.

What was measured:
Tyro3 = Tyro3 (Homo sapiens (Human), UniProt Q06418); test: TAM Enzymatic Assay (HTRF), Tyro3; assay type: biochemical
Method: (§1) The kinase assay buffer contained 50 mM HEPES, pH7.5, 10 mM MgCl2, 1 mM EGTA, 0.01% NP-40 and 2 mM DTT. 0.1 ul test compounds dissolved in DMSO were transferred from compound plates to white 384-well assay plates (Greiner […] plates). […] 4 ul enzyme solution (or assay buffer for the enzyme blank) was added to the appropriate wells in each plate, and then 4 ul/well substrate solution was added to initiate the reaction. The plate was protected from light and incubated at room temperature for 60 min. […] The plate was incubated for 1 h at room temperature, and HTRF (homogenous time resolved fluorescence) signal was measured on a PHERAstar FS plate reader (BMG labtech). Percentage of inhibition was calculated for each concentration and IC50 value was generated from curve fitting with GraphPad Prism software.

Axl = Axl (Homo sapiens (Human), UniProt P30530); test: TAM Enzymatic Assay (HTRF), phosphor-Axl; assay type: biochemical
Method: Autophosphorylation of Axl was carried out by incubating the recombinant Axl protein (Life Technologies, PV4275) in buffer containing 50 mM Tris, pH7.5, 0.2 mg/ml Axl, 5 mM ATP, 20 mM MgCl2 and 2 mM DTT at room temperature for 1 hour.
as §1

Sequence of Tyro3 (Q06418 41-890): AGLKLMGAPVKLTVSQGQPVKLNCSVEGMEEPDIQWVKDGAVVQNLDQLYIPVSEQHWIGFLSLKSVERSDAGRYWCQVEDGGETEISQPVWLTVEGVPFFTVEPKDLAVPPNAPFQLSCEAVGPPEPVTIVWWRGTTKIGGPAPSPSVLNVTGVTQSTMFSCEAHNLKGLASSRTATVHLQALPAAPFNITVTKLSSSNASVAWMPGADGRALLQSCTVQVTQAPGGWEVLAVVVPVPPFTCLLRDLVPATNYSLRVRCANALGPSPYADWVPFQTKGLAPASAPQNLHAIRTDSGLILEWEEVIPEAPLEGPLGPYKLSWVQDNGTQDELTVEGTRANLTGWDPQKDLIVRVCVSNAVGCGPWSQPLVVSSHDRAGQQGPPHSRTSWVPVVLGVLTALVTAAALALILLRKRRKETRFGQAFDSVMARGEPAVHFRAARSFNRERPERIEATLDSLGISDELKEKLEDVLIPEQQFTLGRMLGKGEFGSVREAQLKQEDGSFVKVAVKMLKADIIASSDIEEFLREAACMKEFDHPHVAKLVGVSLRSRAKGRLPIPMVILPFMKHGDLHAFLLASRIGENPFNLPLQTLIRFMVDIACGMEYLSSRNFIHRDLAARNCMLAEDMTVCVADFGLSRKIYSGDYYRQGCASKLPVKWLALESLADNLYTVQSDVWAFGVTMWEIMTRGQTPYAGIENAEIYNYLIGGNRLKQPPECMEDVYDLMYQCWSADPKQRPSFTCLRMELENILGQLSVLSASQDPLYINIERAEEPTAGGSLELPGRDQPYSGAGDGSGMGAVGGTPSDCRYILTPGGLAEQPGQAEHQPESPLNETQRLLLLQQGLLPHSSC
Sequence of Axl (P30530 26-894): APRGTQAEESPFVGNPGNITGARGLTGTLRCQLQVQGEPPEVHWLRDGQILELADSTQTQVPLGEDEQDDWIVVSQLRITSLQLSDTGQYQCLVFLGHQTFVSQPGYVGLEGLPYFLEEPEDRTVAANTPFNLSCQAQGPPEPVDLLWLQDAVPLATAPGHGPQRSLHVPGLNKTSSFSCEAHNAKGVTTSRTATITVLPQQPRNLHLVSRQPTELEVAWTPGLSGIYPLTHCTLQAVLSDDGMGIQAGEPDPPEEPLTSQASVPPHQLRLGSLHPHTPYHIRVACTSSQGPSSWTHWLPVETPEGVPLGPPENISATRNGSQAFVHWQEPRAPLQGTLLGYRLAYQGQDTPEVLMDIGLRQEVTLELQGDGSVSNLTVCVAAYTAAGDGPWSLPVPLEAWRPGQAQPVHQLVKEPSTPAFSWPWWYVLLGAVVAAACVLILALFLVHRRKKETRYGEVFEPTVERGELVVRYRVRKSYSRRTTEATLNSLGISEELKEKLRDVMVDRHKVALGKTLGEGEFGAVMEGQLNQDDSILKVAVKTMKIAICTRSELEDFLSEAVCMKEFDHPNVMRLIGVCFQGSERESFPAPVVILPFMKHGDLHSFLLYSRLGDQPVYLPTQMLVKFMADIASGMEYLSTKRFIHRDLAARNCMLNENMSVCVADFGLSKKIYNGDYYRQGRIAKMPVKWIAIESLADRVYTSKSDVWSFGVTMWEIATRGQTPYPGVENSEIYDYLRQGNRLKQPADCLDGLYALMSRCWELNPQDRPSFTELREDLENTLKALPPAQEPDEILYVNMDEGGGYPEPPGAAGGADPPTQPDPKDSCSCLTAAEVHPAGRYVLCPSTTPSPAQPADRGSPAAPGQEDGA

pIC50 (Tyro3): < 7.00
pIC50 (Axl): > 8.30
SMILES: Cc1cn(C)nc1-n1c(=O)c(C(=O)Nc2ccc(-c3cc(C4CCN(C(=O)C(C)C)CC4)n4ncnc(N)c34)cc2)cn(C(C)C)c1=O [Example 138, N-(4-(4-Amino-7-(1-isobutyrylpiperidin-4-yl)pyrrolo[2,1-f][1,2,4]triazin-5-yl)phenyl)-3-(1,4-dimethyl-1H-pyrazol-3-yl)-1-isopropyl-2,4-dioxo-1,2,3,4-tetrahydropyrimidine-5-carboxamide]
